Experiments:
[1] = Drug release experiment (dialysis of DOX-loaded particles, sink condition); type: physicochemical; details: 37° C., from AUC of release-time curve, normalized to initial drug loading (100%)
Description: Proton nuclear magnetic resonance (^1H-NMR, Varian, 400 MHz) measurements were used to determine the compositions of block copolymers and nanoassemblies in DMSO-d6 and D2O, respectively. The number average molecular weights (Mn) of block copolymers and nanoassemblies were calculated by gel permeation chromatography (GPC, Shimadzu LC20, Japan) equipped with RI and UV detectors, using PEG standard and a phosphate buffered saline (PBS, 1×) mobile phase. Particle sizes of nanoassemblies were determined by dynamic light scattering (DLS, Zetasizer Nano 90, Malvern, UK) measurements at a 173° fixed angle. All samples were prepared in aqueous solutions at 2 mg/mL and filtered through 0.22 μm filters prior to GPC and DLS analyses. DOX loading and release were quantified using ultraviolet-visible spectrophotometry spectroscopy (UV-Vis, absorbance at 480 nm, SpectraMax M5, Molecular Devices, USA).
All particles entrapping DOX were dissolved in deionized water (0.5 mg/mL), and transferred to six dialysis cassettes (MWCO 10 kDa). […] Drug release patterns were monitored under the sink condition as the volume of dialysis medium was maintained 3,000 times greater (5 L) than the volume of the sample solution in the dialysis cassettes (1.65 mL/cassette, n=3). […] DOX remaining in each dialysis cassette was measured at 0, 1, 3, 6, 10, 24, 34, and 48 h. […]

[2] = tested on: human non-small cell lung cancer A549 cell line; assay: Cytotoxicity assay (resazurin cell viability); type: cell-based; details: A549 cells
Description: A human non-small cell lung cancer A549 cell line was used to determine the cytotoxicity of empty nanoassemblies, DOX-loaded nanoassemblies, and free DOX. Cells were seeded in a 96-well plate (5,000 cells/well) in 100 μL F12K cell culture medium containing 10% FBS. After 24 hours, serial dilutions of the samples were added to the cell plate. Cells were then incubated at 37° C., 5% CO2, for 72 hours, followed by cell viability measurement using a resazurin assay that indicates mitochondrial metabolic activity in live cells. Resazurin solution in PBS (10 μL, 1 mM) was added to the sample-treated cells at the end of the 72-hour treatment period. Three hours later, the fluorescence of resorufin, metabolited resazurin, was measured at 560 nm (excitation)/590 nm (emission). The half maximal inhibitory concentration (IC50) was calculated with Prism software (GraphPad, USA).

- Accumulated drug release at pH 5.0 in 48 h ([1]; pH 5.0, 48 h): 100%
- Accumulated drug release at pH 7.4 in 48 h ([1]; pH 7.4, 48 h): 100%
SMILES: COc1cccc2c1C(=O)c1c(O)c3c(c(O)c1C2=O)C[C@@](O)(C(=O)CO)C[C@@H]3O[C@H]1C[C@H](N)[C@H](O)[C@H](C)O1.Cl [Free DOX, doxorubicin hydrochloride]
- IC50 ([2]; 72 hours incubation, resazurin assay, DOX equivalent): 530 ± 200 nM
- Relative cytotoxicity ([2]; IC50 relative to free DOX (fold)): 1.00

Reference: US20130071482A1, “BLOCK COPOLYMER CROSS-LINKED NANOASSEMBLIES AS MODULAR DELIVERY VEHICLES” (THE UNIVERSITY OF KENTUCKY RESEARCH FOUNDATION, priority 2011, published 2013)
